Results taken from article PMC6913697 (Journal of Experimental Botany, 2019).

Legend:
Type in all cases: biochemical
PvCHI1 = biological target: T1, PvCHI1 (Pteris vittata, UniProt A0A4Y6I0P5); test: HPLC product analysis
T1 sequence (A0A4Y6I0P5 1-214): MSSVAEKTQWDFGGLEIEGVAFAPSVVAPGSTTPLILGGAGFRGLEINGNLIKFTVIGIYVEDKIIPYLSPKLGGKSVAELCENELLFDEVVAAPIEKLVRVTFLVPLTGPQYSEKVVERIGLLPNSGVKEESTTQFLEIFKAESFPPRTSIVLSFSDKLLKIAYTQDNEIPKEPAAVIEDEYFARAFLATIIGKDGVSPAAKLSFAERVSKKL

AdcCHI1 = biological target: T2, AdcCHI1 (Adiantum caudatum, UniProt A0A4Y6I1H0); test: HPLC product analysis
T2 sequence (A0A4Y6I1H0 1-214): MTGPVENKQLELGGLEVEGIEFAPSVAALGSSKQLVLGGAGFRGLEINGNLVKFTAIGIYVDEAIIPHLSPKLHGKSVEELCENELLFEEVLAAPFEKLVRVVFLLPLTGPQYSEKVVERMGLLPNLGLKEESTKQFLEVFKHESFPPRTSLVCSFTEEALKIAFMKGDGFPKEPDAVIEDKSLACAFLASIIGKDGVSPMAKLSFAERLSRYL

HaCHI1 = biological target: T3, HaCHI1 (Haplopteris amboinensis, UniProt A0A4Y6I1E6); test: HPLC product analysis
T3 sequence (A0A4Y6I1E6 1-214): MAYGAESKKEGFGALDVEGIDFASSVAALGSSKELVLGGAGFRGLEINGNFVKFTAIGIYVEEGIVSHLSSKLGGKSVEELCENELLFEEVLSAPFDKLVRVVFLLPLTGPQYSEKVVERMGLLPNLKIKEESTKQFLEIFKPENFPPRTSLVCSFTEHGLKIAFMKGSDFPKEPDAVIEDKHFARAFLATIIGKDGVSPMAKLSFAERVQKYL

LoCHS1 = biological target: T4, LoCHS1 (Lindsaea orbiculata, UniProt A0A4Y6I0N8); test: LC-MS product analysis; conditions: 100 μM malonyl-CoA, 50 mM potassium phosphate pH 6.5, 35 °C, no CHIL
T4 sequence (A0A4Y6I0N8 1-405): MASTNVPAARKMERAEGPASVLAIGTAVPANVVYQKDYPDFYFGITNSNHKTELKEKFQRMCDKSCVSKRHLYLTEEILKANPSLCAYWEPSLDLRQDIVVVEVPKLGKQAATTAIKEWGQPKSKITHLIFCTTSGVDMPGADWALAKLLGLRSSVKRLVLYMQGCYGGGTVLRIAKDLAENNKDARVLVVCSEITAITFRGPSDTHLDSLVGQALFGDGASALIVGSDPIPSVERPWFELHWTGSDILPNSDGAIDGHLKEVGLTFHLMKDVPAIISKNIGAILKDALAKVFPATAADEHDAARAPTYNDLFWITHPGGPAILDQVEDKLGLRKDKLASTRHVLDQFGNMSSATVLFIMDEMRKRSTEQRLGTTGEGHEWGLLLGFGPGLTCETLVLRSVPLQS

LoCHS2 = biological target: T5, LoCHS2 (Lindsaea orbiculata, UniProt A0A4Y6I0P0); test: LC-MS product analysis; conditions: 100 μM malonyl-CoA, 50 mM potassium phosphate pH 6.5, 35 °C, no CHIL
T5 sequence (A0A4Y6I0P0 1-439): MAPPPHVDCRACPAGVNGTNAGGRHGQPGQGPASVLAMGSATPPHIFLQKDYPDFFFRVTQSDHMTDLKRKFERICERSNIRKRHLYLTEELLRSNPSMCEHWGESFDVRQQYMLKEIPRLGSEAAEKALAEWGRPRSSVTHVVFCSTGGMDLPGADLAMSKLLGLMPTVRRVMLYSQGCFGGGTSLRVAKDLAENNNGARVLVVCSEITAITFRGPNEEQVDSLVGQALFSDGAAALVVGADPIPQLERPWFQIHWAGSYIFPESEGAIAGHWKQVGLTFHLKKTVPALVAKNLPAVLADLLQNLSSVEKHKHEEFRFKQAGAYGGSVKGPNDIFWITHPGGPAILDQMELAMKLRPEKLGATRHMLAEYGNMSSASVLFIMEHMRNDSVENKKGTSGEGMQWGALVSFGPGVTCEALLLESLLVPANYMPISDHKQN

[1] = 50 μM substrate, 50 mM Tris-HCl pH 7.5, 25 °C

O=C(/C=C/c1ccc(O)cc1)c1ccc(O)cc1O [isoliquiritigenin]
HPLC product analysis (PvCHI1; [1]): AcCHI1, AdcCHI1, AcaCHI1, HaCHI1, and PvCHI1 were all able to catalyze type II-specific substrates | HPLC product analysis (AdcCHI1; [1]): AcCHI1, AdcCHI1, AcaCHI1, HaCHI1, and PvCHI1 were all able to catalyze type II-specific substrates | HPLC product analysis (HaCHI1; [1]): AcCHI1, AdcCHI1, AcaCHI1, HaCHI1, and PvCHI1 were all able to catalyze type II-specific substrates

CC(C)(COP(=O)(O)OP(=O)(O)OC[C@H]1O[C@@H](n2cnc3c(N)ncnc32)[C@H](O)[C@@H]1OP(=O)(O)O)[C@@H](O)C(=O)NCCC(=O)NCCSC(=O)/C=C/c1ccc(O)cc1 [p-coumaroyl-CoA]
LC-MS product analysis (LoCHS1): reactions were provided with p-coumaroyl-CoA and malonyl-CoA | LC-MS product analysis (LoCHS2): reactions were provided with p-coumaroyl-CoA and malonyl-CoA

O=C(/C=C/c1ccc(O)cc1)c1c(O)cc(O)cc1O [naringenin chalcone]
HPLC product analysis (PvCHI1; room temperature, 1 min): the other five (AcCHI1, AcaCHI1, AdcCHI1, HaCHI1, and PvCHI1) exhibited slight type II CHI activity | HPLC product analysis (AdcCHI1; room temperature, 1 min): the other five (AcCHI1, AcaCHI1, AdcCHI1, HaCHI1, and PvCHI1) exhibited slight type II CHI activity | HPLC product analysis (HaCHI1; room temperature, 1 min): the other five (AcCHI1, AcaCHI1, AdcCHI1, HaCHI1, and PvCHI1) exhibited slight type II CHI activity
